Measured values from ChEMBL document CHEMBL3091331, “Aminothiazole-featured pirinixic acid derivatives as dual 5-lipoxygenase and microsomal prostaglandin E2 synthase-1 inhibitors with improved potency and efficiency in vivo” (J Med Chem, 2013).
Activity calls are given as the source filed them. The rule behind the calls is not given here.

What was measured:
[1] = molecular target: T1, Polyunsaturated fatty acid 5-lipoxygenase (Homo sapiens, UniProt P09917); experiment: Inhibition of 5-lipoxygenase in A23187-stimulated human polymorphonuclear leukocytes using arachidonic acid as substrate incubated 15 mins prior to substrate addition measured after 10 mins by HPLC analysis
T1 sequence (P09917 whole entry): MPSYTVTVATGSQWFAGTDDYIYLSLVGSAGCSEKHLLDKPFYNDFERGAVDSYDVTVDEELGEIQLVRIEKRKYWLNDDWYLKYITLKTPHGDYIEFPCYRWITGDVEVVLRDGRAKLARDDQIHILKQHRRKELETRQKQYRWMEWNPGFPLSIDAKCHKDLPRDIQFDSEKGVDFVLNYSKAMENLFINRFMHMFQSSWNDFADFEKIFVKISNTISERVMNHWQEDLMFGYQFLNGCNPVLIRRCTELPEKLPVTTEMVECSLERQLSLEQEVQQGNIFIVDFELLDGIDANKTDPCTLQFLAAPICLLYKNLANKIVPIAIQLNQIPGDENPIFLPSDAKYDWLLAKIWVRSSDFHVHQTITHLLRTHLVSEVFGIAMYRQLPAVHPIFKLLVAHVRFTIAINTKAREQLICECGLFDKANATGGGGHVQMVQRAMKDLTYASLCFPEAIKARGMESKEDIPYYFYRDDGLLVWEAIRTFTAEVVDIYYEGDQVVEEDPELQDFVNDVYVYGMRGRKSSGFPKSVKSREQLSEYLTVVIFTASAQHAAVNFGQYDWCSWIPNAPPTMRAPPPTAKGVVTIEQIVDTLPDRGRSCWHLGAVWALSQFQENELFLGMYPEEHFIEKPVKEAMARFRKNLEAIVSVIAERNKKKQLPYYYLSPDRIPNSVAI

[2] = molecular target: T1, Polyunsaturated fatty acid 5-lipoxygenase; experiment: Inhibition of human recombinant 5-lipoxygenase expressed in Escherichia coli BL21 using arachidonic acid as substrate incubated 5 to 10 mins prior to substrate addition measured after 10 mins by HPLC analysis
[3] = molecular target: T2, Prostaglandin E synthase (Homo sapiens, UniProt O14684); experiment: Inhibition of mPGES-1 from human A549 cell microsomal membranes using PGH2 as substrate incubated 15 mins prior to substrate addition measured after 1 min by RP-HPLC analysis
T2 sequence (O14684 whole entry): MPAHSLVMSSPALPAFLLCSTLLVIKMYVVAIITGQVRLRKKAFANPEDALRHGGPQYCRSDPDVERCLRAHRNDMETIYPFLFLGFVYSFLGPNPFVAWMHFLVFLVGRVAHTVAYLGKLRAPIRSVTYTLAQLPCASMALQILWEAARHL

[4] = molecular target: T2, Prostaglandin E synthase; experiment: Inhibition of mPGES-1 (unknown origin)
[5] = molecular target: T1, Polyunsaturated fatty acid 5-lipoxygenase; experiment: Inhibition of 5-lipoxygenase in human polymorphonuclear leukocytes; assay type: cell-based
[6] = molecular target: T3, Prostaglandin E synthase (Homo sapiens) (UniProt O14684); experiment: Inhibition of mPGES-1 (unknown origin) assessed as remaining activity at 10 uM; values are per cent of control
T3 sequence (whole entry): T2 sequence (O14684 whole entry)

[7] = Metabolic stability in Sprague-Dawley rat liver microsomes assessed as compound remaining at 10 uM after 60 mins by HPLC analysis; assay type: ADME; conditions: read-out: Stability
[8] = test system: Mus musculus; experiment: Antiinflammatory activity in CD-1 mouse peritonitis model assessed as reduction in vascular permeability at 1 mg/kg, ip administered 30 mins prior to zymosan-challenge measured after 4 hrs relative to vehicle-treated control; assay type: functional; conditions: CD-1, ip, route intraperitoneal
[9] = molecular target: T4, Polyunsaturated fatty acid 5-lipoxygenase (Homo sapiens) (UniProt P09917); experiment: Inhibition of human recombinant 5-lipoxygenase expressed in Escherichia coli BL21 using arachidonic acid as substrate at 1 uM incubated 5 to 10 mins prior to substrate addition measured after 10 mins by HPLC analysis
T4 sequence (whole entry): T1 sequence (P09917 whole entry)

[10] = test system: Mus musculus; experiment: Reduction of LTC4 formation in CD-1 mouse peritonitis model at 1 mg/kg, ip administered 30 mins prior to zymosan-challenge measured after 30 mins by EIA relative to vehicle-treated control; assay type: functional; conditions: CD-1, ip, route intraperitoneal
[11] = test system: Mus musculus; experiment: Antiinflammatory activity in CD-1 mouse peritonitis model assessed as reduction in myeloperoxidase activity at 1 mg/kg, ip administered 30 mins prior to zymosan-challenge measured after 4 hrs by spectrophotometry relative to vehicle-treated control; assay type: functional; conditions: CD-1, ip, route intraperitoneal
[12] = test system: Mus musculus; experiment: Antiinflammatory activity in CD-1 mouse peritonitis model assessed as reduction in neutrophil infiltration at 1 mg/kg, ip administered 30 mins prior to zymosan-challenge measured after 4 hrs by spectrophotometry relative to vehicle-treated control; assay type: functional; conditions: CD-1, ip, route intraperitoneal
[13] = test system: Mus musculus; experiment: Reduction of PGE2 biosynthesis in CD-1 mouse peritonitis model at 1 mg/kg, ip administered 30 mins prior to zymosan-challenge measured after 4 hrs by RIA (reference value: 1.46 +/- 0.08 ng/ml); assay type: functional, organism-based; design: dose 1 mg/kg
[14] = test system: Radical scavenging activity; experiment: Antioxidant activity assessed as DPPH radical scavenging activity at 25 to 100 uM after 30 mins; assay type: functional
[15] = molecular target: T4, Polyunsaturated fatty acid 5-lipoxygenase (Homo sapiens); experiment: Ratio of IC50 for human recombinant 5-lipoxygenase expressed in Escherichia coli BL21 to IC50 for 5-lipoxygenase in human PMNL cells
[16] = organism: Homo sapiens; experiment: Translocation of 5-lipoxygenase from cytosol into nuclear membrane in A23187-stimulated human polymorphonuclear leukocytes assessed as enzyme product formation at 10 uM incubated for 15 mins prior to A23187-challenge measured after 5 mins by Western blotting analysis; assay type: functional

| SMILES | IC50 [1] [nM] | IC50 [2] [nM] | IC50 [3] [nM] | further results |
| --- | --- | --- | --- | --- |
| CCCCCCC(Sc1nc(Cl)cc(Nc2nc(-c3ccc(OC)cc3)cs2)n1)C(=O)O (stereo not given) | 800 | 1800 | 1300 |  |
| CCCCCCC(Sc1nc(Cl)cc(Nc2cccc(-c3ccccc3)c2)n1)C(=O)O (stereo not given) |  |  |  | IC50 [4]: 4000 nM; IC50 [5]: 600 nM |
| CCCCCCC(Sc1nc(Cl)cc(Nc2ccc3[nH]c(C(F)(F)F)nc3c2)n1)C(=O)O (stereo not given) |  |  |  | residual activity [6]: 43.4% |
| CCCCCCC(Sc1nc(Cl)cc(Nc2nc(-c3ccc4c(c3)CCCC4)cs2)n1)C(=O)O (stereo not given) | 400 | 2300 | 400 |  |
| CCCCCCC(Sc1nc(Cl)cc(Nc2nc(-c3ccc(F)c(F)c3)cs2)n1)C(=O)O (stereo not given) | 1500 | 2300 | 1600 |  |
| CCCCC(Sc1nc(Cl)cc(Nc2nc(-c3ccc(Cl)cc3)cs2)n1)C(=O)O (stereo not given) | 900 | 3800 | 1200 |  |
| CCCCCCC(Sc1nc(Cl)cc(Nc2nc(-c3ccccc3)c(C)s2)n1)C(=O)O (stereo not given) | 600 | 1900 | 700 | remaining at 1 h, 10 µM [7]: 74% |
| CCCCCCC(Sc1nc(Cl)cc(Nc2nc(-c3ccc([N+](=O)[O-])cc3)cs2)n1)C(=O)O (stereo not given) | 1400 | 1800 | 5000 |  |
| CC(C)c1ccc2c(c1)c(SC(C)(C)C)c(CC(C)(C)C(=O)O)n2Cc1ccc(Cl)cc1 |  |  |  | inhibition in vivo at 1 mg/kg [8]: 76%; inhibition [9]: inactive; inhibition in vivo at 1 mg/kg [10]: 94%; inhibition in vivo at 1 mg/kg [11]: 18%; inhibition in vivo at 1 mg/kg [12]: 34%; inhibition [13]: inactive |
| N[C@@H](CS)C(=O)O |  |  |  | Activity [14]: Active |
| O=C(O)CSc1nc(Cl)cc(Nc2nc(-c3ccc(Cl)cc3)cs2)n1 | > 10000 | > 10000 | 2300 |  |
| CCCCCCC(Sc1nc(Cl)cc(Nc2cccc(C)c2C)n1)C(=O)O (stereo not given) | 3900 |  |  |  |
| CCCCCCC(Sc1nc(Cl)cc(Nc2nc(-c3ccc(Br)cc3)c(C)s2)n1)C(=O)O (stereo not given) | 200 | 1600 | 1300 | Ratio IC50 [15]: 8 |
| CCCCCCC(Sc1nc(Cl)cc(Nc2nc(-c3cccc4ccccc34)cs2)n1)C(=O)O (stereo not given) | 400 | 700 | 1700 |  |
| CCCCCCC(Sc1nc(Cl)cc(Nc2nc3c(s2)CCc2cc(OC)ccc2-3)n1)C(=O)O (stereo not given) | 200 | 1900 | 1900 | Ratio IC50 [15]: 8 |
| CCC(Sc1nc(Cl)cc(Nc2nc(-c3ccc(Cl)cc3)cs2)n1)C(=O)O (stereo not given) | 3600 | 6600 | 1400 |  |
| CCCCCCC(Sc1nc(Cl)cc(Nc2nc(-c3ccccc3)c(CC)s2)n1)C(=O)O (stereo not given) | 700 | 1800 | 1700 |  |
| O=C1O[C@H]([C@@H](O)CO)C(O)=C1O |  |  |  | Activity [14]: Active |

| SMILES | IC50 [1] [nM] | IC50 [2] [nM] | IC50 [3] [nM] | further results |
| --- | --- | --- | --- | --- |
| CCCCCCC(Sc1nc(Cl)cc(Nc2nc(-c3ccccc3)c(-c3ccccc3)s2)n1)C(=O)O (stereo not given) | 600 | 700 | 600 |  |
| CCCCCCC(Sc1nc(Cl)cc(Nc2nc(-c3ccc(Cl)cc3)cs2)n1)C(=O)O (stereo not given) | 900 | 800 | 700 |  |
| CC(C)=CCC[C@]1(C)[C@@H](CC=C(C)C)C[C@]2(CC=C(C)C)C(=O)C(CC=C(C)C)=C(O)[C@@]1(C(=O)C(C)C)C2=O |  |  |  | Activity [16]: Active |
| CCCCCCC(Sc1nc(Cl)cc(Nc2nc(C34CC5CC(CC(C5)C3)C4)cs2)n1)C(=O)O (stereo not given) | 3300 | 5000 | 900 |  |
| CCCCCCC(Sc1nc(Cl)cc(Nc2nc(-c3ccc(F)cc3F)cs2)n1)C(=O)O (stereo not given) | 1500 | 2500 | 1800 |  |
| CCCCCCC(Sc1nc(Cl)cc(Nc2nc(-c3ccc(Cl)cc3Cl)cs2)n1)C(=O)O (stereo not given) | 800 | 1100 | 400 |  |
| CCC(Sc1nc(Cl)cc(Nc2nc(-c3ccc4ccccc4c3)cs2)n1)C(=O)O (stereo not given) | 2900 | 2000 | 1400 |  |
| CCCCCCC(Sc1nc(Cl)cc(Nc2nc(-c3ccc(C)cc3)cs2)n1)C(=O)O (stereo not given) | 200 | 3000 | 700 | Ratio IC50 [15]: 8 |
| CCCCCC[C@H](Sc1nc(Cl)cc(Nc2nc(-c3ccc4ccccc4c3)cs2)n1)C(=O)O | 900 | 300 | 600 |  |
| CCOc1ccc2ccc(=O)oc2c1 [ETHOXYCOUMARIN] |  |  |  | remaining at 1 h, 10 µM [7]: 31% |
| CCCCCCC(Sc1nc(Cl)cc(Nc2nc(-c3ccc(-c4ccccc4)cc3)cs2)n1)C(=O)O (stereo not given) | 300 | 600 | 500 |  |
| O=C(O)C(Sc1nc(Cl)cc(Nc2nc(-c3ccc(Cl)cc3)cs2)n1)c1cccc2ccccc12 (stereo not given) | 400 | 700 | 500 |  |
| CCCCCCC(Sc1nc(Cl)cc(Nc2nc(-c3ccc(C(F)(F)F)cc3)cs2)n1)C(=O)O (stereo not given) | 600 | 1200 | 400 |  |
| CCCCCC[C@@H](Sc1nc(Cl)cc(Nc2nc(-c3ccc4ccccc4c3)cs2)n1)C(=O)O | 400 | 400 | 600 |  |
| CCCCCCC(Sc1nc(Cl)cc(Nc2ccc(-c3ccccc3)cc2)n1)C(=O)O (stereo not given) |  |  |  | IC50 [5]: 730 nM |
| CCCCCCC(Sc1nc(Cl)cc(Nc2nc(-c3ccc(Cl)c(Cl)c3)cs2)n1)C(=O)O (stereo not given) | 400 | 700 | 300 |  |
| CCCCCCC(Sc1nc(Cl)cc(Nc2nc(-c3ccc(Br)cc3)cs2)n1)C(=O)O (stereo not given) | 300 | 700 | 800 |  |
| CCCCCCC(Sc1nc(Cl)cc(Nc2nc(-c3ccccc3)cs2)n1)C(=O)O (stereo not given) | 600 | 2000 | 800 |  |
